Source: the Kinase Knowledgebase extract (Sharma et al. 2016)
pIC50: −log10 of the molar value.

Target: MAPK14 (UniProt Q16539)
Test: Inhibition of MAPK14 Kinase Activity

MAPK14, sequence (Q16539 whole entry, looked up): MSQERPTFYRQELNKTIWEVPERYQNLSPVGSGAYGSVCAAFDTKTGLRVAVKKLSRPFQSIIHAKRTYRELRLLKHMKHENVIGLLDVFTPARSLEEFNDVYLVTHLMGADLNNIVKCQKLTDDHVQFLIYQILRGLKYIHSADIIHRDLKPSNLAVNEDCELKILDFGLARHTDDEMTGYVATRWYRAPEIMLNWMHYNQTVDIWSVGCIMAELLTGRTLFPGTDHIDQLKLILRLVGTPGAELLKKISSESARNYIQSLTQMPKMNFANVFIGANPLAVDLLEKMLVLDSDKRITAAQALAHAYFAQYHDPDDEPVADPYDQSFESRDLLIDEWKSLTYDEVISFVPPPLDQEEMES

Compound | pIC50
Cc1ccc(C(=O)NC2CC2)cc1-c1ccc(C(=O)NCC(C)(C)C)cc1OCCCNC(C)C | > 5.00
Cc1ccc(C(=O)NC2CC2)cc1-c1ccc(C(=O)NCC(C)(C)C)cc1OCC(O)CO (stereo not drawn) | > 5.00
Cc1c(F)cc(C(=O)NC2CC2)cc1-c1ccc(C(=O)N[C@H](C)C(C)C)cc1O | > 5.00
Cc1ccc(CNC(=O)c2ccc(-c3cc(C(=O)NC4CC4)cc(F)c3C)c(O)c2)cc1 | > 5.00
CCNC(=O)Nc1cc(C(=O)NCC(C)(C)C)ccc1-c1cc(C(=O)NC2CC2)ccc1C | > 5.00
CCN(CC)CCCOc1cc(C(=O)NCC(C)(C)C)ccc1-c1cc(C(=O)NC2CC2)ccc1C | > 5.00
CCNC(=O)CCCOc1cc(C(=O)NCC(C)(C)C)ccc1-c1cc(C(=O)NC2CC2)cc(F)c1C | > 5.00
Cc1c(F)cc(C(=O)NC2CC2)cc1-c1ccc(C(=O)NCC(C)(C)C)cc1CNCC(C)(C)C | > 5.00
COc1cc(C(=O)N[C@H](C)C(C)(C)C)ccc1-c1cc(C(=O)NC2CC2)cc(F)c1C | > 5.00
Cc1c(F)cc(C(=O)NC2CC2)cc1-c1ccc(C(=O)NCC(C)(C)C)cc1OCCCN(C)C | > 5.00
COCOc1cc(C(=O)N[C@H](C)C(C)(C)C)ccc1-c1cc(C(=O)NC2CC2)cc(F)c1C | > 5.00
COc1cc(C(=O)NCC(C)(C)C)ccc1-c1cc(C(=O)NC2CC2)cc(F)c1C | > 5.00
Cc1ccc(C(=O)NC2CC2)cc1-c1ccc(C(=O)NCC(C)(C)C)cc1OCCCN1CCOCC1 | > 5.00
COc1cc(C(=O)NCC2CC2)ccc1-c1cc(C(=O)NC2CC2)cc(F)c1C | > 5.00
Cc1ccc(C(=O)NC2CC2)cc1-c1ccc(C(=O)NCC(C)(C)C)cc1OCCCN(C)C(C)C | > 5.00
Cc1c(F)cc(C(=O)NC2CC2)cc1-c1ccc(C(=O)N[C@H](C)C(C)(C)C)cc1O | > 5.00
Cc1c(F)cc(C(=O)NC2CC2)cc1-c1ccc(C(=O)NCC(C)(C)C)cc1OCCCC(=O)N1CCCC1 | > 5.00
Cc1c(F)cc(C(=O)NC2CC2)cc1-c1ccc(C(=O)NCC(C)(C)C)cc1OCCCC(=O)N(C)C | > 5.00
COc1ccc(CNC(=O)c2ccc(-c3cc(C(=O)NC4CC4)cc(F)c3C)c(OC)c2)cc1 | > 5.00
COCOc1cc(C(=O)NCC(C)(C)C)ccc1-c1cc(C(=O)NC2CC2)cc(F)c1C | > 5.00
Cc1c(F)cc(C(=O)NC2CC2)cc1-c1ccc(C(=O)NCC(C)(C)C)cc1CO | > 5.00
Cc1c(F)cc(C(=O)NC2CC2)cc1-c1ccc(C(=O)NCC(C)(C)C)cc1O | > 5.00
COc1ccc(CNC(=O)c2ccc(-c3cc(C(=O)NC4CC4)cc(F)c3C)c(O)c2)cc1 | > 5.00
Cc1c(F)cc(C(=O)NC2CC2)cc1-c1ccc(C(=O)NCC(C)(C)C)cc1OCCCC(N)=O | > 5.00

Compound | pIC50
CCC(=O)Nc1cc(C(=O)NCC(C)(C)C)ccc1-c1cc(C(=O)NC2CC2)ccc1C | > 5.00
COc1cc(C(=O)N[C@H](C)C(C)C)ccc1-c1cc(C(=O)NC2CC2)cc(F)c1C | > 5.00
Cc1c(F)cc(C(=O)NC2CC2)cc1-c1ccc(C(=O)NCC(C)(C)C)cc1OCCNS(C)(=O)=O | > 5.00
CC(=O)Nc1cc(C(=O)NCC(C)(C)C)ccc1-c1cc(C(=O)NC2CC2)ccc1C | > 5.00
COCOc1cc(C(=O)N[C@H](C)C(C)C)ccc1-c1cc(C(=O)NC2CC2)cc(F)c1C | > 5.00
Cc1c(F)cc(C(=O)NC2CC2)cc1-c1ccc(C(=O)NCC2CC2)cc1OCCN(C)C | > 5.00
CNC(=O)CCCOc1cc(C(=O)NCC(C)(C)C)ccc1-c1cc(C(=O)NC2CC2)cc(F)c1C | > 5.00
CCCOc1cc(C(=O)NCC(C)(C)C)ccc1-c1cc(C(=O)NC2CC2)cc(F)c1C | > 5.00
Cc1c(F)cc(C(=O)NC2CC2)cc1-c1ccc(C(=O)NCC(C)(C)C)cc1OCCN1CCOCC1 | > 5.00
Cc1c(F)cc(C(=O)NC2CC2)cc1-c1ccc(C(=O)NCC(C)C)cc1O | > 5.00
Cc1ccc(C(=O)NC2CC2)cc1-c1ccc(C(=O)NCC(C)(C)C)cc1N | > 5.00
Cc1c(F)cc(C(=O)NC2CC2)cc1-c1ccc(C(=O)NCC(C)(C)C)cc1OCCCc1nnco1 | > 5.00
COCOc1cc(C(=O)NCC2CC2)ccc1-c1cc(C(=O)NC2CC2)cc(F)c1C | > 5.00
COc1cc(C(=O)NCC(C)C)ccc1-c1cc(C(=O)NC2CC2)cc(F)c1C | > 5.00
COCOc1cc(C(=O)NCc2ccc(OC)cc2)ccc1-c1cc(C(=O)NC2CC2)cc(F)c1C | > 5.00
Cc1ccc(C(=O)NC2CC2)cc1-c1ccc(C(=O)NCC(C)(C)C)cc1NS(C)(=O)=O | > 5.00
Cc1c(F)cc(C(=O)NC2CC2)cc1-c1ccc(C(=O)NCC(C)(C)C)cc1OCCCC(=O)N1CCOCC1 | > 5.00
COCOc1cc(C(=O)NCC(C)C)ccc1-c1cc(C(=O)NC2CC2)cc(F)c1C | > 5.00
Cc1c(F)cc(C(=O)NC2CC2)cc1-c1ccc(C(=O)NCC(C)(C)C)cc1OCCCC(=O)O | > 5.00
Cc1c(F)cc(C(=O)NC2CC2)cc1-c1ccc(C(=O)NCC(C)(C)C)cc1OCC(=O)N1CCOCC1 | > 5.00
Cc1c(F)cc(C(=O)NC2CC2)cc1-c1ccc(C(=O)NCC(C)(C)C)cc1OCCCCO | > 5.00
Cc1ccc(C(=O)NC2CC2)cc1-c1ccc(C(=O)NCC(C)(C)C)cc1OCCCN1CCCC1 | > 5.00
Cc1c(F)cc(C(=O)NC2CC2)cc1-c1ccc(C(=O)NCC2CC2)cc1O | > 5.00
Cc1ccc(C(=O)NC2CC2)cc1-c1ccc(C(=O)NCC(C)(C)C)cc1OCCCNCCO | > 5.00
